pIC50: −log10 of the molar value.
Key:
ROCK1 = ROCK1 (Homo sapiens (Human), UniProt Q13464); assay: ROCK assay (Caliper LABCHIP peptide phosphorylation), ROCK1; format: biochemical; settings: 5 μM ATP, 1.5 μM peptide substrate;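 further: Read-out is separation of phosphorylated from unphosphorylated peptide, with kinase activity inhibition computed at every concentration of a dose-response series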
ROCK2 = ROCK2 (Homo sapiens (Human), UniProt O75116); assay: ROCK assay (Caliper LABCHIP peptide phosphorylation), ROCK2; format: biochemical; settings: 5 μM ATP, 1.5 μM peptide substrate;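 further: reaction stopped with EDTA, then phosphorylated and unphosphorylated peptide resolved by microfluidic electrophoresis, kinase inhibition computed at each compound concentration in dose-response series, DMSO under 2%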
Sequence of ROCK2 (O75116 whole entry, species assumed): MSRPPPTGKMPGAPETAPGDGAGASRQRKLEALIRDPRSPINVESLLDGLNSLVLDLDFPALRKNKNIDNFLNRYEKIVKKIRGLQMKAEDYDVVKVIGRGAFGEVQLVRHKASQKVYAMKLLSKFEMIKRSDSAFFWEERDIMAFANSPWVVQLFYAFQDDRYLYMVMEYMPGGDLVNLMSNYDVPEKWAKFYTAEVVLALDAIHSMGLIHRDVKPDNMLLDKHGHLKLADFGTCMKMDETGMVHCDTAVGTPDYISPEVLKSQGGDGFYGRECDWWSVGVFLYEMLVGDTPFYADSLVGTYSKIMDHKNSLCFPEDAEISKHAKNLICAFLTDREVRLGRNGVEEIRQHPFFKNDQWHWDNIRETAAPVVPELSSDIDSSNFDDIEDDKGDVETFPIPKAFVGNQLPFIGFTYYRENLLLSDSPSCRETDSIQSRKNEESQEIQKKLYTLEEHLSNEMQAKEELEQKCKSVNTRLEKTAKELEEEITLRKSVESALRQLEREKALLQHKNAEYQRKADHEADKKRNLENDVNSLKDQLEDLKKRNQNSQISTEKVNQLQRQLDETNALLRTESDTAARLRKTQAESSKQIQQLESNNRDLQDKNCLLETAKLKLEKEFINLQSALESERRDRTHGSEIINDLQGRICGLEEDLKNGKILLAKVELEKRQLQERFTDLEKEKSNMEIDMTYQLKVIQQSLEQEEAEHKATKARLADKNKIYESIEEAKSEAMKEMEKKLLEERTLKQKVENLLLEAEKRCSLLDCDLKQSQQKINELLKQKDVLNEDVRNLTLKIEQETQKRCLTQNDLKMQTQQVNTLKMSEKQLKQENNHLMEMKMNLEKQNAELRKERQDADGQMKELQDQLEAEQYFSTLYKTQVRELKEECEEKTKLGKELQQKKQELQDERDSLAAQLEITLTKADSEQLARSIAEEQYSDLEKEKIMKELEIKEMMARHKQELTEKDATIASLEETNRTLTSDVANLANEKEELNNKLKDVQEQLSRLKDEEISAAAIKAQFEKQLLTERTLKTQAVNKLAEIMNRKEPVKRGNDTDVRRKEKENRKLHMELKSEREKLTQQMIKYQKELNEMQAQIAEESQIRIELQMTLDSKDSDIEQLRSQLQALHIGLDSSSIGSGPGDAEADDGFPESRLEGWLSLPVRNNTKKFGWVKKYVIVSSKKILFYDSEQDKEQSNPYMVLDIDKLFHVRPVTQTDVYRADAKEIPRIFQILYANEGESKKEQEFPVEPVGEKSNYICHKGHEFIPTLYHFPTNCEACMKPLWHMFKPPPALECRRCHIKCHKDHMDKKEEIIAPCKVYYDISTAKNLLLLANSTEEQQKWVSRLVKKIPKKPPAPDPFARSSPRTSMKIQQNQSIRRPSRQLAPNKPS

Sequence of ROCK1 (Q13464 whole entry, species assumed): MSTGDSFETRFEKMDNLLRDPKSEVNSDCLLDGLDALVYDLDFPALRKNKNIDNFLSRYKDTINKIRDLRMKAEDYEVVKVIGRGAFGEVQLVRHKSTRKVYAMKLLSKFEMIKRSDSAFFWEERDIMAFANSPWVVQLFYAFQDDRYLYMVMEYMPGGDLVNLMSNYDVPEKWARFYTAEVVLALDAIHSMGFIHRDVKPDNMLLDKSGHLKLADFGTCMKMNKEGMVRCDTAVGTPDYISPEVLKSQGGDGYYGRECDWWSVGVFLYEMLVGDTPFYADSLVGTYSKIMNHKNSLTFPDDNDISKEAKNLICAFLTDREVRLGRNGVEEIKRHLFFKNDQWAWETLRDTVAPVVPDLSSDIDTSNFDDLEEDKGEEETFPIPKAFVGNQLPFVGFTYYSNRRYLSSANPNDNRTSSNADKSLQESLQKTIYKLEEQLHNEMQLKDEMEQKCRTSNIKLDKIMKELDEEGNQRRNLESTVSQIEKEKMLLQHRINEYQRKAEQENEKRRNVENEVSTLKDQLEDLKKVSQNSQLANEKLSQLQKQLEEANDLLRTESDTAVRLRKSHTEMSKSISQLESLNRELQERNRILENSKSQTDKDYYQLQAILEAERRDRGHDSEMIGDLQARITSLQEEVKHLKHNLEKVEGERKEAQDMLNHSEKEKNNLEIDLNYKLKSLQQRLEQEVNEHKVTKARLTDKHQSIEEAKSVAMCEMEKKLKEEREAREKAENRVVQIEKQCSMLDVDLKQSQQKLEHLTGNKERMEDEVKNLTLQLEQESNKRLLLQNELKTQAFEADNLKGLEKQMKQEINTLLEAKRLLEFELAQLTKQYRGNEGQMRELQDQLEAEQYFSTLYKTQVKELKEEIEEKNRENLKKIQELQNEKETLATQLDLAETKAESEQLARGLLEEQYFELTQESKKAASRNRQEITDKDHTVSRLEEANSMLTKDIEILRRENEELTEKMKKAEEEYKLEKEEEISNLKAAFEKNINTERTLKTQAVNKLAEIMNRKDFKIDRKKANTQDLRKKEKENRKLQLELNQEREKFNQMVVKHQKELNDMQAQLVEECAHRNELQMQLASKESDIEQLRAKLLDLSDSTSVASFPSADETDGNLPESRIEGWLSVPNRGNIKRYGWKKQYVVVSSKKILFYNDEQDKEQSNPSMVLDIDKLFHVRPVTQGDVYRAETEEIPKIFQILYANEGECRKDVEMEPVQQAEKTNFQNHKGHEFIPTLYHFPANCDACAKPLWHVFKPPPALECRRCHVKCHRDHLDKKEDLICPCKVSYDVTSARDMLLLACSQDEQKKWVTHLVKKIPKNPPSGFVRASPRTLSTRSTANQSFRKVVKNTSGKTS

SMILES	pIC50 (ROCK1)	pIC50 (ROCK2)
COc1cc(C(=O)NCc2ccc(Cl)c(C(F)(F)F)c2)ccc1-c1cn[nH]c1 [Example 39, N-(4-chloro-3-(trifluoromethyl)benzyl)-3-methoxy-4-(1H-pyrazol-4-yl)benzamide]	6.97	7.48
COc1cc(C(=O)N[C@@H](C)[C@H](O)c2ccccc2)ccc1-c1cn[nH]c1 [Example 40, N-((1R,2S)-1-hydroxy-1-phenylpropan-2-yl)-3-methoxy-4-(1H-pyrazol-4-yl)benzamide]	6.47	6.65
COc1cc(C(=O)NCc2ccc(F)cc2Cl)ccc1-c1cn[nH]c1 [Example 41, N-(2-chloro-4-fluorobenzyl)-3-methoxy-4-(1H-pyrazol-4-yl)benzamide]	8.47	8.60
COc1cc(C(=O)N[C@H](C)[C@@H](O)c2ccccc2)ccc1-c1cn[nH]c1 [Example 42, N-((1S,2R)-1-hydroxy-1-phenylpropan-2-yl)-3-methoxy-4-(1H-pyrazol-4-yl)benzamide]	7.58	7.96
COc1cc(C(=O)N[C@H](C)c2ccccc2Cl)ccc1-c1cn[nH]c1 [Example 43, (R)-N-(1-(2-chlorophenyl)ethyl)-3-methoxy-4-(1H-pyrazol-4-yl) benzamide]	7.39	8.88
COc1cc(C(=O)N[C@@H](C)c2ccccc2Cl)ccc1-c1cn[nH]c1 [Example 44, (S)-N-(1-(2-chlorophenyl)ethyl)-3-methoxy-4-(1H-pyrazol-4-yl)benzamide]	7.02	7.28
COc1cc(C(=O)NCc2ccc(Br)cc2Cl)ccc1-c1cn[nH]c1 [Example 45, N-(4-bromo-2-chlorobenzyl)-3-methoxy-4-(1H-pyrazol-4-yl)benzamide]	7.77	8.33
COc1cc(C(=O)NCc2ccc(OCC(C)C)cc2Cl)ccc1-c1cn[nH]c1 [Example 46, N-(2-chloro-4-isobutoxybenzyl)-3-methoxy-4-(1H-pyrazol-4-yl)benzamide]	5.73	6.10
COc1cc(C(=O)NCc2ccc(Cl)cc2SCC(C)C)ccc1-c1cn[nH]c1 [Example 47, N-(4-chloro-2-(isobutylthio)benzyl)-3-methoxy-4-(1H-pyrazol-4-yl)benzamide]	< 5.70	5.88
COc1cc(C(=O)NCc2ccc(Oc3ccccc3)cc2Cl)ccc1-c1cn[nH]c1 [Example 48, N-(2-chloro-4-phenoxybenzyl)-3-methoxy-4-(1H-pyrazol-4-yl)benzamide]	6.18	5.88
COc1ccc(F)c(CNC(=O)c2ccc(-c3cn[nH]c3)c(OC)c2)c1 [Example 49, N-(2-fluoro-5-methoxybenzyl)-3-methoxy-4-(1H-pyrazol-4-yl)benzamide]	7.84	8.61
COc1cc(C(=O)NCc2ccc(F)c(OC)c2F)ccc1-c1cn[nH]c1 [Example 50, N-(2,4-difluoro-3-methoxybenzyl)-3-methoxy-4-(1H-pyrazol-4-yl)benzamide]	7.19	7.78
COc1cc(C(=O)NCc2c(F)ccc(OC)c2F)ccc1-c1cn[nH]c1 [Example 51, N-(2,6-difluoro-3-methoxybenzyl)-3-methoxy-4-(1H-pyrazol-4-yl)benzamide]	7.83	8.27
COc1cc(C(=O)NCc2cc(F)cc(F)c2)ccc1-c1cn[nH]c1 [Example 52, N-(3,5-difluorobenzyl)-3-methoxy-4-(1H-pyrazol-4-yl)benzamide]	6.90	7.20
COc1cc(-c2cn[nH]c2)ccc1C(=O)NCc1ccccc1Cl [Example 53, N-(2-Chlorobenzyl)-2-methoxy-4-(1H-pyrazol-4-yl)benzamide]	7.95	8.21
COc1cccc(CNC(=O)c2ccc(-c3cn[nH]c3)cc2OC)c1 [Example 54, 2-methoxy-N-(3-methoxybenzyl)-4-(1H-pyrazol-4-yl)benzamide]	7.67	8.32
COc1cccc(CNC(=O)c2ccc(-c3c[nH]nc3C)c(OC)c2)c1 [Example 56, 3-Methoxy-N-(3-methoxybenzyl)-4-(3-methyl-1H-pyrazol-4-yl)benzamide]	6.34	6.69
COc1cc(C(=O)NCc2ccccc2Cl)ccc1-c1c[nH]nc1C [Example 57, N-(2-Chlorobenzyl)-3-methoxy-4-(3-methyl-1H-pyrazol-4-yl)benzamide]	6.83	7.00
COc1cccc(CNC(=O)c2ccc(-c3cn[nH]c3)c(C)c2)c1 [Example 58, N-(3-Methoxybenzyl)-3-methyl-4-(1H-pyrazol-4-yl)benzamide]	7.77	8.64
COc1cccc(CNC(=O)c2ccc(-c3cn[nH]c3)c(F)c2)c1 [Example 59, 3-Fluoro-N-(3-methoxybenzyl)-4-(1H-pyrazol-4-yl)benzamide]	7.48	7.72
COc1cccc([C@@H](C)NC(=O)c2ccc(-c3cn[nH]c3)cc2S(C)(=O)=O)c1 [Example 61, (R)-N-(1-(3-Methoxyphenyl)ethyl)-2-(methylsulfonyl)-4-(1H-pyrazol-4-yl)benzamide]	< 5.70	5.34

SMILES	pIC50 (ROCK1)	pIC50 (ROCK2)
COc1cccc([C@@H](C)NC(=O)c2ccc(-c3cn[nH]c3)cc2F)c1 [Example 62, (R)-2-Fluoro-N-(1-(3-methoxyphenyl)ethyl)-4-(1H-pyrazol-4-yl)benzamide]	7.36	8.05
CN(C)CCOc1cc(C(=O)NCc2ccccc2Cl)ccc1-c1cn[nH]c1 [Example 63, N-(2-Chlorobenzyl)-3-(2-(dimethylamino)ethoxy)-4-(1H-pyrazol-4-yl)benzamide]	5.80	6.07
COc1cc(C(=O)NCc2cccc(C(=O)O)c2)ccc1-c1cn[nH]c1 [Example 64, 3-((3-Methoxy-4-(1H-pyrazol-4-yl)benzamido)methyl)benzoic acid]	8.11	8.92
COc1cc(C(=O)NCc2cccc(C(=O)N3CCCC3)c2)ccc1-c1cn[nH]c1 [Example 66, 3-methoxy-4-(1H-pyrazol-4-yl)-N-(3-(pyrrolidine-1-carbonyl)benzyl) benzamide]	7.19	7.63
COc1cc(C(=O)NCc2cc(F)ccc2F)ccc1-c1cn[nH]c1 [Example 69, N-(2,5-difluorobenzyl)-3-methoxy-4-(1H-pyrazol-4-yl)benzamide]	7.73	8.28
COc1cc(C(=O)N(C)CCc2ccccc2)ccc1-c1cn[nH]c1 [Example 70, 3-methoxy-N-methyl-N-phenethyl-4-(1H-pyrazol-4-yl)benzamide]	6.42	6.79
COc1cc(C(=O)N(C)Cc2ccccc2)ccc1-c1cn[nH]c1 [Example 71, N-benzyl-3-methoxy-N-methyl-4-(1H-pyrazol-4-yl)benzamide]	5.87	6.31
COc1cc(C(=O)N[C@H](C)c2ccccc2)ccc1-c1cn[nH]c1 [Example 72, (R)-3-methoxy-N-(1-phenylethyl)-4-(1H-pyrazol-4-yl)benzamide]	8.23	8.83
COc1cc(C(=O)N[C@H](C)c2ccc(F)cc2)ccc1-c1cn[nH]c1 [Example 73, (R)-N-(1-(4-fluorophenyl)ethyl)-3-methoxy-4-(1H-pyrazol-4-yl)benzamide]	8.04	8.57
COc1cc(C(=O)N[C@H](C)c2ccc3ccccc3c2)ccc1-c1cn[nH]c1 [Example 74, (R)-3-methoxy-N-(1-(naphthalen-2-yl)ethyl)-4-(1H-pyrazol-4-yl)benzamide]	7.44	8.04
COc1cc(C(=O)NCc2cc(F)c(F)c(F)c2)ccc1-c1cn[nH]c1 [Example 75, 3-methoxy-4-(1H-pyrazol-4-yl)-N-(3,4,5-trifluorobenzyl) benzamide]	7.47	8.08
COc1cc(C(=O)NCc2cc(Cl)ccc2Cl)ccc1-c1cn[nH]c1 [Example 76, N-(2,5-dichlorobenzyl)-3-methoxy-4-(1H-pyrazol-4-yl)benzamide]	8.11	8.66
COc1cc(C(=O)NCc2ccc3nc(N)sc3c2)ccc1-c1cn[nH]c1 [Example 77, N-((2-aminobenzo[d]thiazol-6-yl)methyl)-3-methoxy-4-(1H-pyrazol-4-yl)benzamide]	5.91	6.40
COc1cc(C(=O)NCc2cccc(OC(F)F)c2)ccc1-c1cn[nH]c1 [Example 78, N-(3-(difluoro-methoxy)benzyl)-3-methoxy-4-(1H-pyrazol-4-yl)benzamide]	7.66	8.40
COc1cc(C(=O)NCc2ccc(F)c(F)c2)ccc1-c1cn[nH]c1 [Example 79, N-(3,4-difluorobenzyl)-3-methoxy-4-(1H-pyrazol-4-yl)benzamide]	7.64	8.10
COc1cc(C(=O)NCc2c(F)ccc(C)c2F)ccc1-c1cn[nH]c1 [Example 80, N-(2,6-difluoro-3-methylbenzyl)-3-methoxy-4-(1H-pyrazol-4-yl)benzamide]	7.88	8.53
COc1cc(C(=O)NCc2cc(F)ccc2Cl)ccc1-c1cn[nH]c1 [Example 82, N-(2-chloro-5-fluorobenzyl)-3-methoxy-4-(1H-pyrazol-4-yl)benzamide]	8.00	8.36
COc1cc(C(=O)NCc2cccc(C(=O)NC3(C)CC3)c2)ccc1-c1cn[nH]c1 [Example 83, 3-methoxy-N-(3-((1-methylcyclopropyl)carbamoyl)benzyl)-4-(1H-pyrazol-4-yl)benzamide]	8.50	8.94
Cc1cc(C(=O)N[C@H](C)c2ccccc2)ccc1-c1cn[nH]c1 [Example 84, 3-Methyl-N-[(1R)-1-phenylethyl]-4-(1H-pyrazol-4-yl)benzamide]	7.96	8.45
COc1cc(C(=O)NCc2cccc(CN(C)C)c2)ccc1-c1cn[nH]c1 [Example 85, N-({3-[(dimethylamino)methyl]phenyl}methyl)-3-methoxy-4-(1H-pyrazol-4-yl)benzamide]	5.60	6.32

Source: US9458110B2, “Phenylpyrazole derivatives as potent ROCK1 and ROCK2 inhibitors” (BRISTOL-MYERS SQUIBB COMPANY, priority 2013, dated 2016)
